Experimental data from US4387086A, “Organic compounds” (Sandoz Ltd., priority 1979, dated 1983).

Test system: antiserum of Example 4
Experiment: Cross-reactivity of the antiserum: inhibition by 50% of the reaction between antibody (antiserum) and tracer antigen (tritiated thioridazine)
Type: binding, sheep
Settings: relative to thioridazine; tracer tritiated thioridazine
Excerpt: The selectivity of the method can be determined as follows.
The main metabolites of thioridazine having a structure closely related to the parent compound are thioridazine-derivatives oxidized in the 2-methylthio side chain, more specifically the sulfoxide (A) and the sulfone (B), and also demethyl-thioridazine (C). The cross-reactivity of the antiserum was examined by employing a mixture of thioridazine, its sulfoxide A and sulfone B and its demethyl-thioridazine C in the amount required to inhibit the reaction between antibody (antiserum) and tracer antigen (tritiated thioridazine) by 50%.

Going from `CN1CCCCC1CCN1c2ccccc2Sc2ccc(S(C)(=O)=O)cc21` (stereo not drawn) [B] to `CN1CCCCC1CCN1c2ccccc2Sc2ccc([S+](C)[O-])cc21` (stereo not drawn) [A], the “inhibitory concentration where 50% binding to the antiserum of Example 4 occurs, times higher than that of the parent compound” value falls from 93 times to 67 times.

In the case of `CSc1ccc2c(c1)N(CCC1CCCCN1)c1ccccc1S2` (stereo not drawn) [C, demethyl-thioridazine], the “inhibitory concentration where 50% binding to the antiserum of Example 4 occurs, times higher than that of the parent compound” value is reported as 111 times.
